The target in this assay is CXCR4 receptor (Homo sapiens, UniProt P61073). The assay can be described thus: 384 w β-arrestin recruitment assay (Tango CXCR4-bla U2OS cells, PeproTech SDF-1α). It is filed as cell-based. More on the design: host or cells: Tango CXCR4-bla U2OS cells. As to the method:
Tango™ CXCR4-bla U2OS Cells were resuspended in assay media consisting of DMEM (Corning; Corning, NY, USA) supplemented with 1% dialyzed Fetal bovine serum, 0.1 mM MEM Non-essential amino acids solution, 25 mM HEPES solution (Corning; Corning, NY, USA), 1 mM Sodium Pyruvate and 100 IU penicillin, […] streptomycin sulfate (Corning; Corning, NY, USA) at a density of 3.0 × 10^5 cells/mL. Cells suspension was dispensed at 30 μL per well into assay plate and incubated overnight in a cell culture incubator at 37 °C with 5% CO2. Following overnight incubation, LiveBlazer FRET B/G Loading Kit working reagent was prepared according to supplier guidelines and 6 μL of solution was dispensed into each well. Assay plate was covered and incubated in a dark place for two hours and Fluorescence Intensity was measured using the BMG LABTECH CLARIOstar Plus (BMG LABTECH Inc., Cary, NC, USA) according to the LiveBlazer FRET B/G Loading Kit excitation and emission measurement guidelines.
A general note: Activated receptors often draw arrestin, which recruitment assays turn into a signal.

Structures are written as SMILES. pEC50: −log10 of the molar value.

Sequence of CXCR4 receptor (P61073 whole entry): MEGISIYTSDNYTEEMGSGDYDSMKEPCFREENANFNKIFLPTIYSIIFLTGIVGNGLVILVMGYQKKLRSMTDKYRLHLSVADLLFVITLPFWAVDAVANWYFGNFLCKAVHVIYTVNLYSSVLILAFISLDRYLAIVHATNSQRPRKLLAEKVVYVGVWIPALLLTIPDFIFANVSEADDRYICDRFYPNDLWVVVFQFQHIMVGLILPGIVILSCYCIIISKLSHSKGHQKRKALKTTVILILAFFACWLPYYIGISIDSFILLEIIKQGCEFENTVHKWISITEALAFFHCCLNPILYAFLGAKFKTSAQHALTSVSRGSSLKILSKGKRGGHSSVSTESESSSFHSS

As usually defined, the pEC50 is the negative decadic logarithm of the EC50, by convention in mol/L. A higher pEC50 goes with a low EC50. As a reminder, the Emax is the greatest response seen or fitted, relative to the assay's reference. `COc1ccc(OC)c(NS(=O)(=O)c2ccc(-c3cnc(C4CC4)o3)cc2)c1` [Compound 19] showed a pEC50 of 6.30. In addition, the maximal response (Emax) (U2OS) was 30%.
